Measured values as given in PubChem BioAssay AID493040 (Abbott Labs, 2011).
Active and inactive are the calls of the source. No rule for the calls is given here.

Tests used:
Experiment in all cases: PubChem AID 493040
[1] = target: Serine/threonine-protein kinase Sgk2 (Homo sapiens) (UniProt Q9HBY8); conditions: kinase panel binding, pKi; SGK
[2] = target: Mitogen-activated protein kinase 14 (Homo sapiens) (UniProt Q16539); conditions: kinase panel binding, pKi; MAPK14
[3] = target: Rho-associated protein kinase 2 (Homo sapiens) (UniProt O75116); conditions: kinase panel binding, pKi; ROCK2
Rho-associated protein kinase 2 (Homo sapiens), sequence (O75116 whole entry, looked up): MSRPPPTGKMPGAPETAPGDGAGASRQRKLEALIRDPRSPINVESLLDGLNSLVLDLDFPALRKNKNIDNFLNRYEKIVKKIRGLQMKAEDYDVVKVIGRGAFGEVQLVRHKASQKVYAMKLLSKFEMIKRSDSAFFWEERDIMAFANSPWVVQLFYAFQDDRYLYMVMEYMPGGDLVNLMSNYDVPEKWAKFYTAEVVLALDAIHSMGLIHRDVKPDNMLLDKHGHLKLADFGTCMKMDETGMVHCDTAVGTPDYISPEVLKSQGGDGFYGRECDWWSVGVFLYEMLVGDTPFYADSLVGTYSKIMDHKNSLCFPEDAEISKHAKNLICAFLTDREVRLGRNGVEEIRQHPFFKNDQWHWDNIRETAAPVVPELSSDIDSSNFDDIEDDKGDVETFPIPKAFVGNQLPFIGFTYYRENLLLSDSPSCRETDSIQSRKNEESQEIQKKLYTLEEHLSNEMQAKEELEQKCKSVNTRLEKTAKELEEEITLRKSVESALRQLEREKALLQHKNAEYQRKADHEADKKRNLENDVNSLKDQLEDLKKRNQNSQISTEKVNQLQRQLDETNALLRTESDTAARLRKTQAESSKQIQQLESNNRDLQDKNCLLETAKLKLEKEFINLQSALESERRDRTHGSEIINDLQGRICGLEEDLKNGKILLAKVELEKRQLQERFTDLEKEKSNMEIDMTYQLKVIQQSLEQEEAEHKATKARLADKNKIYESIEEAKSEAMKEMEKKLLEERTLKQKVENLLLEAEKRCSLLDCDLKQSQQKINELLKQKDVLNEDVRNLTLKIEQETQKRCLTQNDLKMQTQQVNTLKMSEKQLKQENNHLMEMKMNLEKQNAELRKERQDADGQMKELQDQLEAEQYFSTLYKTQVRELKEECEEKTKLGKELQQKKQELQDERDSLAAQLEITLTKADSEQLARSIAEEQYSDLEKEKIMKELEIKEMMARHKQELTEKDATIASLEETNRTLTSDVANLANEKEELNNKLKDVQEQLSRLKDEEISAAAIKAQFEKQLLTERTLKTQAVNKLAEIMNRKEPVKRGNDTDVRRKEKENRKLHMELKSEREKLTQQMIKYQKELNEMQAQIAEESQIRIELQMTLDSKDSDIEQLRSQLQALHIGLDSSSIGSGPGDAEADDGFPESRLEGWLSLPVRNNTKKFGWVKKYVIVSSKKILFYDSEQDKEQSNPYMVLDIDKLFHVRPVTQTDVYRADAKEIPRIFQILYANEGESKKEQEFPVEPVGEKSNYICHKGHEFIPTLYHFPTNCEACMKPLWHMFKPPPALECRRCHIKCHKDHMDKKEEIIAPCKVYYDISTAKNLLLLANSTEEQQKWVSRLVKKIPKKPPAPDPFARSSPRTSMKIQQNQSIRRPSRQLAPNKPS

[4] = target: Cyclin-dependent kinase 2 (Homo sapiens) (UniProt P24941); conditions: kinase panel binding, pKi; CDK2
[5] = target: Cyclin-dependent kinase 5 (Homo sapiens) (UniProt Q00535); conditions: kinase panel binding, pKi; CDK5
Cyclin-dependent kinase 5 (Homo sapiens), sequence (Q00535 whole entry, looked up): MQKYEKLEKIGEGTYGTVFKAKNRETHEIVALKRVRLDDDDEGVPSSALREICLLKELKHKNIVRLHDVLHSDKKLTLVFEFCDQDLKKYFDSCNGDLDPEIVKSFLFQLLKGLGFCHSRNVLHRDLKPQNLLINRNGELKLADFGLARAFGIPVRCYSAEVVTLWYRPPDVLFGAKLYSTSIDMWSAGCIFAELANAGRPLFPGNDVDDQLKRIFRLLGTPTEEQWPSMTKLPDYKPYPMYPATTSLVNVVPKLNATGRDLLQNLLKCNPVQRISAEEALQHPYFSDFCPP

Serine/threonine-protein kinase Sgk2 (Homo sapiens), sequence (Q9HBY8 whole entry, looked up): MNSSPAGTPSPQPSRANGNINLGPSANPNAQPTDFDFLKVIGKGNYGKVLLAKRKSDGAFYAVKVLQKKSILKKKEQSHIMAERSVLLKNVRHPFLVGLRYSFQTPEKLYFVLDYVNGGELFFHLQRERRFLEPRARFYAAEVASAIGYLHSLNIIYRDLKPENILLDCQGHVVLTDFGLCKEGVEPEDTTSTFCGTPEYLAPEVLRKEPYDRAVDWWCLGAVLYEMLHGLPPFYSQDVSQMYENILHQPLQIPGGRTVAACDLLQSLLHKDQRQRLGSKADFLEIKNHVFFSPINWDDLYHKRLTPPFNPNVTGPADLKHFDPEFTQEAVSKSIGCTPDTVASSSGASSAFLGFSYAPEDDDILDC
Mitogen-activated protein kinase 14 (Homo sapiens), sequence (Q16539 whole entry, looked up): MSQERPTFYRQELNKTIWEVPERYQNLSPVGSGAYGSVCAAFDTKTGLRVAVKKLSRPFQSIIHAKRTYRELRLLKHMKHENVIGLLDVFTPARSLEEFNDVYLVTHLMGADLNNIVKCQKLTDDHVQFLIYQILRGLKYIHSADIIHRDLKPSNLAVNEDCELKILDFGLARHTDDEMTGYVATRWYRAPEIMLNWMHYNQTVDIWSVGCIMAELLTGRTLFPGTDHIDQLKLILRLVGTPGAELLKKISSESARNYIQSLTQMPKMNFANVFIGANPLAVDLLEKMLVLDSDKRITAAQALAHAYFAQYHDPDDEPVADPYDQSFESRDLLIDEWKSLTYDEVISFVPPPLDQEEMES

Ki [3] | Ki [4] [nM] | SMILES | other results
– | – | O=C(Nc1ccc(CO)cc1)c1cnn2c(-c3ccccc3)ccnc12 | Ki [1]: > 10000 nM (inactive)
– | – | Nc1ccc2cc(NCCc3ccccc3)cc(Nc3ncccn3)c2n1 | Ki [2]: 2510 nM
3160 nM | – | Cn1cc(-c2ccccc2)c2nc(-c3ccncc3)cc(=O)n21 | –
– | – | CC(C)(C)c1cc(NC(=O)Nc2cccc3ccccc23)n(-c2cccc(C(=O)N(CCN)CCO)c2)n1 | Ki [2]: 631 nM
50.1 nM | 126 | CC(C)(C)Oc1cc(-c2ccncc2)cc2[nH]nc(N)c12 | –
63.1 nM | 398 | CCCCNc1c(-c2ccc3[nH]ncc3c2)nc2ncccn12 | –
– | – | NC(=O)c1ccc2nc(-c3ccc([N+](=O)[O-])o3)cn2c1 | Ki [2]: 3160 nM
– | – | COc1ccc(C=C2SC(=Nc3ccccc3)NC2=O)cc1OC | Ki [1]: > 10000 nM (inactive)
631 nM | 501 | O=C1Nc2ccccc2Nc2cc(-c3ccncc3Cl)ccc21 | –
> 7940 nM (inactive) | – | Cc1c(C#N)c2nc3ccccc3n2c(=O)c1=CO | Ki [1]: > 10000 nM (inactive)
63.1 nM | 200 | CCCCNc1cc(-c2ccncc2)cc2[nH]nc(N)c12 | –
> 7940 nM (inactive) | – | NC1CCCCC1Nc1nccc(Nc2ccccc2C(=O)O)n1 (centres undefined) | –
– | 5010 | CCCn1c(=O)c2[nH]c(-c3cnn(Cc4cccc(C(F)(F)F)c4)c3)nc2n(CC)c1=O | –
– | – | Cc1cc(=O)[nH]c2n[nH]c(-c3cccc(C(F)(F)F)c3)c12 | Ki [2]: 398 nM
> 7940 nM (inactive) | – | O=c1cc(-c2cccc(F)c2)nc2c(-c3ccc(F)cc3)c[nH]n12 | –
100 nM | 501 | Cc1[nH]nc2ccc(-c3cncc(OCCN(C)S(C)(=O)=O)c3)cc12 | –
> 5010 nM (inactive) | 316 | O=C(O)c1ccccc1Nc1ncnc(Nc2ccc3cn[nH]c3c2)n1 | Ki [5]: 251 nM
20 nM | 316 | OCCNc1cc(-c2c[nH]c3ncccc23)cc(Cl)n1 | –
> 3980 nM (inactive) | – | NC(=O)c1ccc(-c2nc(-c3ccc4c(c3)OCO4)c(-c3ccccn3)[nH]2)cc1 | –
> 7940 nM (inactive) | 251 | COc1ccccc1C(=O)Nc1n[nH]c2ccc(-c3cn(Cc4ccccc4)nn3)cc12 | –
– | – | c1ccc(-c2ncc3ccccn23)cc1 | Ki [2]: 50100 nM
– | 2000 | CN(c1ccccc1-c1ccc2c(c1)Nc1ccccc1NC2=O)S(C)(=O)=O | –
6.31 nM | 3.98 | c1cnc2[nH]cc(-c3ccnc(NCC4CCCCC4)n3)c2c1 | –

Ki [3] | Ki [4] [nM] | SMILES | other results
39.8 nM | 2000 | COCCN(CCOC)c1cc(-c2c[nH]c3ncccc23)cc(Cl)n1 | –
501 nM | – | NC(=O)c1ccccc1Nc1nc(Nc2ccccc2)ncc1C(F)(F)F | –
316 nM | 1260 | Fc1cccc(-c2c[nH]c3ncccc23)c1 | –
> 7940 nM (inactive) | – | O=C(O)c1ccccc1Nc1ccnc(NCc2cccc(O)c2)n1 | –
– | – | CC(=O)n1ncc2cc(N)ccc21 | Ki [2]: 7940 nM
– | – | CCn1c(=C(C#N)C(=O)O)sc(=CNc2ccccc2)c1=O | Ki [1]: 3980 nM
5010 nM | 3160 | NC(=O)c1ccc(-c2ccncc2)cc1NCc1cccc(F)c1 | –
– | – | Cc1cc(=O)[nH]nc1-c1ccc(NC(=O)Nc2cc(C(F)(F)F)ccc2F)c(Cl)c1 | Ki [2]: 100 nM
> 7940 nM (inactive) | 631 | O=[N+]([O-])c1cccc(-c2nnc3ccc(N4CCCCC4)nn23)c1 | –
– | – | NC(=O)c1cccc2[nH]c(-c3cccc(NCCN4CCCC4)n3)nc12 | Ki [1]: > 10000 nM (inactive)
10 nM | 100 | CC(C)(CO)CCCNc1cc(-c2c[nH]c3ncccc23)cc(Cl)n1 | –
7.94 nM | 158 | COCC(C)Nc1cc(-c2c[nH]c3ncccc23)cc(Cl)n1 (centres undefined) | –
> 7940 nM (inactive) | 398 | Cc1ccc(Nc2nccc(Nc3ccccc3C(=O)O)n2)cc1F | –
20 nM | 31.6 | CN(Cc1ccccc1)c1cc(-c2c[nH]c3ncccc23)cc(Cl)n1 | –
– | 5.01 | FC(F)(F)c1ccccc1CNc1nccc(-c2c[nH]c3ncccc23)n1 | –
251 nM | 3160 | CN(C)CCCOc1cc(-c2ccncc2)cc2[nH]nc(N)c12 | –
316 nM | 1000 | O=C1Nc2ccccc2Nc2cc(-c3ccncc3)ccc21 | –
79.4 nM | 631 | CN(C)c1cc(-c2ccncc2)cc2[nH]nc(N)c12 | –
– | – | CC(C)(C)c1cc(NC(=O)C(=O)c2cccc3ccccc23)n(-c2ccc(OCC(=O)NCCO)cc2)n1 | Ki [2]: 631 nM
3980 nM | – | Cc1sc2[nH]c(=O)n3nc(-c4ccncc4)nc3c2c1C | –
– | – | CCN(CCN(C)C)C(=O)c1cccc(-n2nc(C(C)(C)C)cc2NC(=O)Nc2cccc3ccccc23)c1 | Ki [2]: 794 nM
3160 nM | 5010 | CCCCCCCCCCCCOc1ccc(N=C(N)N)cc1N=C(N)N | Ki [1]: > 10000 nM (inactive)
